In patent US20230372232A1, “ORAL CARE COMPOSITION COMPRISING SWEET POTATO-DERIVED POTATO SYRUP OR SUPERNATANT OF POTATO SYRUP” (KARAIMO NOJYO CO., LTD., priority 2020, published 2023):

Legend:
Streptococcus mutans [1] = experiment: Tooth plaque formation inhibition, crystal violet A570 (Test Examples 3 and 4); type: cell-based; details: 1% concentration sucrose (sample 8); BHI medium, 37° C., 48 hours
Description: A basic sample (a sample 8) was produced by impregnating 1% concentration sucrose (white sugar) in a BHI medium of twice the normal concentration and adding 0.1 mL of Streptococcus mutans liquid (approximately 1000 bacterial bodies) thereto. Next, another sample (a sample 9) in which the sucrose (white sugar) was not at all impregnated in the basic sample (the sample 8) was produced. There were also individually produced a sample (10) in which 10% of the potato syrup of Example 1-A was added instead of the 1% concentration sucrose (white sugar) to the basic sample (the sample 8), a sample (11) in which 10% of the potato syrup of Example 1-B was added instead of the 1% concentration sucrose (white sugar) to the basic sample (the sample 8), and a sample (12) in which 10% of the potato syrup of Example 1-C was added instead of the 1% concentration sucrose (white sugar) to the basic sample (the sample 8). The respective samples were subject to a culture process at 37° C. for 48 hours. […] Then, the pigment was eluted with 0.2 mL of 99.5% ethanol, and the absorbance (570 nm) was measured. Based on the results, the plaque (tooth plaque) formation inhibition rates (%) were calculated. The results are shown in FIG. 3. plaque formation inhibition rate (%)=[A570(no sucrose added)−A570 (sample added)]/A570(no sucrose added)×100 A570: absorbance of crystal violet eluted with ethanol at 570 nm. […]

Streptococcus mutans [2] = experiment: Tooth plaque formation inhibition by potato syrup with malt, crystal violet A570 (Test Example 6); type: cell-based; details: 1% concentration sucrose; BHI medium, 37° C., 48 hours
Description: A basic sample was produced by impregnating 1% concentration sucrose (white sugar) in a BHI medium and adding 0.1 mL of Streptococcus mutans liquid (approximately 1000 bacterial bodies) thereto. Next, another additive-free sample in which the sucrose (white sugar) was not at all impregnated in the basic sample was produced. There were also individually produced a sample in which 10% of the potato syrup with malt of Example 3 was added instead of the 1% concentration sucrose (white sugar) to the basic sample and a sample in which 10% of the potato syrup of Example 1-B was added instead of the 1% concentration sucrose (white sugar) to the basic sample. The respective samples were subject to a culture process at 37° C. for 48 hours. Afterwards, the supernatant liquids of the culture fluids were discarded, and then, the respective samples were washed twice with 0.2 mL of distilled water. Afterwards, 0.2 mL each of 0.1% crystal violet were added to each of the samples, a stir staining operation was performed for 20 minutes, and then, the staining fluids were discarded. The residues were washed twice with 0.2 mL of distilled water. Then, the pigment was eluted with 0.2 mL of 99.5% ethanol and the absorbance (570 nm) was measured. Based on the results, the plaque (tooth plaque) formation inhibition rates (%) were calculated.

With OC[C@H]1O[C@@](CO)(O[C@H]2O[C@H](CO)[C@@H](O)[C@H](O)[C@H]2O)[C@@H](O)[C@@H]1O [sucrose] the “plaque (tooth plaque) formation” value (Streptococcus mutans [1]) was “the plaque (tooth plaque) rapidly grew” and the “plaque (tooth plaque) formation” value (Streptococcus mutans [2]) was “the plaque (tooth plaque) rapidly grew”.
